Emax and EC50 data for 41 compounds are collected here from patent US8563746B2, “Cyclic benzimidazole derivatives useful as anti-diabetic agents” (Merck Sharp & Dohme Corp, priority 2008, dated 2013).

pEC50: −log10 of the molar value.

recombinant human AMPK complex 1 (containing α1β1γ1), sequence (Q13131 whole entry): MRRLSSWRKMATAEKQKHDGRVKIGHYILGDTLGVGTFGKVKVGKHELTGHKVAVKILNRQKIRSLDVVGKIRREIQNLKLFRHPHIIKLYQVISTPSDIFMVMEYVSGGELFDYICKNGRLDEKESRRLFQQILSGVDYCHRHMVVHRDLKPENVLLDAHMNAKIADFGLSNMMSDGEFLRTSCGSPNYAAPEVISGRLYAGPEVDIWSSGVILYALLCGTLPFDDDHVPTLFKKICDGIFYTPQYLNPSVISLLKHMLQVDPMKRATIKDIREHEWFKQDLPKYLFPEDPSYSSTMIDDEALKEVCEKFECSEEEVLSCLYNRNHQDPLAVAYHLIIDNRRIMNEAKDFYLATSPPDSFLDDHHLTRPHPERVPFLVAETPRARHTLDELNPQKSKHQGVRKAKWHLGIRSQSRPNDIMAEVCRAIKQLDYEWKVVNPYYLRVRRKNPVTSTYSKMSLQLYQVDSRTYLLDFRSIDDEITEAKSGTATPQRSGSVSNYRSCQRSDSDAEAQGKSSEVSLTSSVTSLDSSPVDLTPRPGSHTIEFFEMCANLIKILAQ
recombinant human AMPK complex 1 (containing α1β1γ1), sequence (Q9Y478 whole entry): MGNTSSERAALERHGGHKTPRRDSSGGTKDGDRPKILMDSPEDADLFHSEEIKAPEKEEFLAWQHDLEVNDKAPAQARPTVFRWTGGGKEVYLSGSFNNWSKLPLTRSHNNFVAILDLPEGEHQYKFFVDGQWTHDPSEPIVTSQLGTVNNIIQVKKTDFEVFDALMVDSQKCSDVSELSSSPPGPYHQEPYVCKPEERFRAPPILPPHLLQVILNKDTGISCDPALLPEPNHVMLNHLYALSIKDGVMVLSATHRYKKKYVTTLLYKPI
recombinant human AMPK complex 1 (containing α1β1γ1), sequence (P54619 whole entry partner): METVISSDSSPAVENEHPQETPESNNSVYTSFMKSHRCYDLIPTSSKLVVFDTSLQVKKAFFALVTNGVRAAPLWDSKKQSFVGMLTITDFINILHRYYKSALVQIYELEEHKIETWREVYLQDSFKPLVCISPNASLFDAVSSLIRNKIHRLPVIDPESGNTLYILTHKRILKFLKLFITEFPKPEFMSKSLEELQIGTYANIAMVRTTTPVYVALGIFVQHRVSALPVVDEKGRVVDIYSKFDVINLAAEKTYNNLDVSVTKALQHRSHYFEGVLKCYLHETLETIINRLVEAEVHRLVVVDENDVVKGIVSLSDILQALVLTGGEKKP

For the first assay, the target named is recombinant human AMPK complex 1 (containing α1β1γ1) (Homo sapiens, UniProt Q13131+Q9Y478). Description: In vitro AMPK activation assay ([…]). In kind it is biochemical. Conditions: recombinant human AMPK complex 1 (α1β1γ1); basal activity subtracted, expressed as % maximum AMP activation. The method, then:
The recombinant human AMPK complex 1 (containing α1β1γ1) was obtained from baculovirus expression system. Recombinant viruses were generated by cotransfection of AMPK/pBacPak9 clones with Baculogold baculovirus DNA (Pharmingen) in spodoptera frugiperda 21 cells according to the manufacturer's instructions. Each round of virus amplification was performed for 5 days in Grace's medium containing 10% serum. Virus that had been subjected to three rounds of amplification was used for all protein production procedures. To express the AMPK complex, sf21 cells were adapted to serum free medium (SF900 II, Invitrogen) by sequential dilution from serum containing stocks into SF900II medium and maintained in shaker flasks at 90 rpm at 27° C. The recombinant AMPK enzyme complex was produced by triple infection, one recombinant virus for each of the subunits, in sf21 cells under serum free conditions. Cells were infected in log phase, 1×10^6 cells/ml, at a multiplicity of infection of ˜5. Cells were harvested by centrifugation at 10,000×g for 15 minutes after 72 hours of infection with viruses. The insect cell pellet from 2 liters of culture was resuspended in 50 ml lysis buffer (20 mM Tris-HCl, 50 mM NaCl, 50 mM NaF, 30 mM Na PPi, 0.25 M sucrose, 10 mM ZnCl2, 2 mM DTT, 0.4 mg/ml digitonin) and subjected to two cycles of freeze-thaw lysis in a dry-ice ethanol bath. Insoluble material was removed by centrifugation at 10,000×g and the supernatant was fractionated with use of polyethylene glycol (PEG). The protein fraction precipitating between 2.5 and 6% PEG was used for further purification using a Blue-Sepharose step (Zhou et al, J. Clin. Invest. 108, 1167-1174, 2001).
The total in vitro AMPK activation assay volume is 50 μl in a 96-well plate. The reaction mixture contained 100 μM ATP (0.5 μCi ^33P-ATP per reaction), and 50 μM SAMS ([…]) in a buffer (20 mM HEPES, pH 7.0, 5 mM MgCl2, 0.01% Brij35). The reaction was initiated with addition of the enzyme. After 30-minute incubation at 30° C., the reaction was stopped by addition of 80 μl 1% H3PO4. Aliquots (100 μl) were transferred to 96-well MultiScreen plates (MAPHNOB50; Millipore Corp., Bedford, Mass., USA). The plate was washed three times with 1% H3PO4 followed by detection in a Top-count. The counts per minute from the basal activity (the reaction without activator) was subtracted from each well and the data were expressed as % maximum AMP activation followed by EC50 calculation.
The term Emax denotes the size of the effect at its maximum, as opposed to the concentration needed. In the case of `O=C(O)CSc1nc2cc(-c3cccc(F)c3)c(Cl)cc2[nH]1` [Example 4, [6-chloro-5-(3-fluoro-phenyl)-1H-benzimidazol-2-ylsulfanyl]-acetic acid], the Emax is more than 40%.
For the compound `O=C(O)CSc1nc2cc(C#Cc3ccc(Br)cc3)c(Cl)cc2[nH]1` [Example 68], the Emax is more than 40%.
For the compound `Cc1ccccc1C#Cc1cc2nc(SCC(=O)O)[nH]c2cc1Cl` [Example 30, (6-chloro-5-o-tolylethynyl-1H-benzo-imidazol-2-ylsulfanyl)-acetic acid], the Emax was more than 40%.
Take `CCc1ccc(C(=O)Cc2cc3nc(SCC(=O)O)[nH]c3cc2Cl)cc1` [Example 74]: the Emax is more than 40%.
`O=C(O)CSc1nc2cc(C#Cc3cccc(O)c3)c(Cl)cc2[nH]1` [Example 29, [6-chloro-5-(3-hydroxyphenyl-ethynyl)-1H-benzoimidazol-2-ylsulfanyl]-acetic acid]: the Emax was more than 40%.
As for `CC(C)Cc1ccc(-c2cc3nc(SCC(=O)O)[nH]c3cc2Cl)cc1` [Example 43, [6-chloro-5-(4-isobutyl-phenyl)-1H-benzimidazol-2-ylsulfanyl]-acetic acid], the Emax is more than 40%.
On to `CC(=O)Nc1cccc(C#Cc2cc3nc(SCC(=O)O)[nH]c3cc2Cl)c1` [Example 17, 2-(5-((3-acetamido-phenyl)ethynyl)-6-chloro-1H-benzo[d]-imidazol-2-ylthio)-acetic acid], for which the maximal effect (Emax) is more than 40%.
The same measure, in the same setting: under `CC(C)(COc1nc2cc(C#Cc3ccccc3)c(Cl)cc2[nH]1)C(=O)O` [Example 49, 3-(6-Chloro-5-phenylethynyl-1H-benzoimidazol-2-yloxy)-2,2-dimethyl-propionic acid] stands more than 40%.
On the same count and under the same terms, under `CC(=O)NCc1ccc(-c2cc3nc(SCC(=O)O)[nH]c3cc2Cl)cc1` [Example 7, 2-(6-(4-(acetamido-methyl)phenyl)-5-chloro-1H-benzo[d]-imidazol-2-ylthio)-acetic acid] stands more than 40%; under `O=C(O)CCc1nc2cc(-c3ccc(-c4ccccc4)cc3)c(Cl)cc2[nH]1` [Example 51, 3-(5-Biphenyl-4-yl-6-chloro-1H-benzimidazol-2-yl)-propionic acid], more than 40%; under `O=C(O)CSc1nc2cc(C#Cc3ccc(Oc4ccccc4)cc3)c(Cl)cc2[nH]1` [Example 33, [6-Chloro-5-(4-phenoxy-phenylethynyl)-1H-benzoimidazol-2-ylsulfanyl]-acetic acid], more than 40%.
In the case of `O=C(O)CSc1nc2cc(-c3csc4ccccc34)c(Cl)cc2[nH]1` [Example 14, 2-(5-(benzo[b]-thiophen-3-yl)-6-chloro-1H-benzo[d]-imidazol-2-ylthio)-acetic acid], the Emax is more than 40%.
Regarding `O=C(O)CSc1nc2cc(C#Cc3ccc(F)cc3F)c(Cl)cc2[nH]1` [Example 24, [6-chloro-5-(2,4-difluoro-phenyl-ethynyl)-1H-benzoimidazol-2-ylsulfanyl]-acetic acid], the Emax is more than 40%.
Same read-out and setting: under `O=C(O)CSc1nc2cc(C#Cc3ccc(-c4ccccc4)cc3)c(Cl)cc2[nH]1` [Example 34, (5-biphenyl-4-ylethynyl-6-chloro-1H-benzoimidazol-2-ylsulfanyl)-acetic acid] stands more than 40%; under `O=C(O)CSc1nc2cc(-c3ccc(O)cc3)c(Cl)cc2[nH]1` [Example 8, 2-(6-chloro-5-(4-hydroxyphenyl)-1H-benzo[d]imidazol-2-ylthio)acetic acid], more than 40%; under `O=C(O)CSc1nc2cc(C#Cc3cccnc3)c(Cl)cc2[nH]1` [Example 56], more than 40%.
Take `O=C(O)CSc1nc2cc(C#Cc3ccc(C(=O)O)cc3)c(Cl)cc2[nH]1` [Example 75]: the maximal response (Emax) was more than 40%.
On the same count and under the same terms, for `CSc1ccc(-c2cc3nc(SCC(=O)O)[nH]c3cc2Cl)cc1` [Example 84] the value was more than 40%; for `Nc1ccccc1C#Cc1cc2nc(SCC(=O)O)[nH]c2cc1Cl` [Example 10, 2-(5-((2-amino-phenyl)ethynyl)-6-chloro-1H-benzo[d]-imidazol-2-ylthio)-acetic acid], more than 40%; for `CCNC(=O)Nc1ccc(C#Cc2cc3nc(SCC(=O)O)[nH]c3cc2Cl)cc1` [Example 78], more than 40%.
The same measure, in the same setting: under `COc1ccc(-c2cc3nc(SCC(=O)O)[nH]c3cc2Cl)cc1` [Example 42, [6-chloro-5-(4-methoxy-phenyl)-1H-benzimidazol-2-ylsulfanyl]-acetic acid] stands more than 40%.
Regarding `O=C(O)CSc1nc2cc(C#Cc3ccccc3[N+](=O)[O-])c(Cl)cc2[nH]1` [Example 70], the Emax is more than 40%.
Regarding `O=C(O)CSc1nc2cc(-c3ccc(-c4ccccc4)s3)c(Cl)cc2[nH]1` [Example 58], the Emax was more than 40%.
Regarding `O=C(O)CSc1nc2cc(-c3csc(-c4ccccc4)n3)c(Cl)cc2[nH]1` [Example 72], the Emax is more than 40%.
Take `COc1ccc(-c2cc3nc(SCC(=O)O)[nH]c3cc2Cl)cn1` [Example 12, 2-(6-chloro-5-(6-methoxypyridin-3-yl)-1H-benzo[d]imidazol-2-ylthio)acetic acid]: the Emax was more than 40%.
The same measure, in the same setting: under `CS(=O)(=O)c1ccc(C#Cc2cc3nc(SCC(=O)O)[nH]c3cc2Cl)cc1` [Example 19, [6-chloro-5-(4-methanesulfonyl-phenyl-ethynyl)-1H-benzo-imidazol-2-yl-sulfanyl]-acetic acid] stands more than 40%.
Turning to `O=C(O)CSc1nc2cc(-c3cc4ccccc4s3)c(Cl)cc2[nH]1` [Example 63], the Emax is more than 40%.
As for `COc1cccc(C#Cc2cc3nc(SCC(=O)O)[nH]c3cc2Cl)c1` [Example 32, [6-chloro-5-(3-methoxy-phenyl-ethynyl)-1H-benzoimidazol-2-ylsulfanyl]-acetic acid], the Emax was more than 40%.
On the same count and under the same terms, under `COc1ccc(C#Cc2cc3nc(SCC(=O)O)[nH]c3cc2Cl)cc1` [Example 39, [6-chloro-5-(4-methoxy-phenyl-ethynyl)-1H-benzimidazol-2-ylsulfanyl]-acetic acid] stands more than 40%; under `O=C(O)CSc1nc2cc(-c3cccc(N4CCOCC4)n3)c(Cl)cc2[nH]1` [Example 71], more than 40%; under `CN(C)C(=O)c1ccc(C#Cc2cc3nc(SCC(=O)O)[nH]c3cc2Cl)cc1` [Example 82], more than 40%.
In the case of `O=C(O)CSc1nc2cc(-c3cc(F)cc(F)c3)c(Cl)cc2[nH]1` [Example 5, [6-chloro-5-(3,5-difluoro-phenyl)-1H-benzimidazol-2-ylsulfanyl]-acetic acid], the Emax is more than 40%.
`O=C(O)CSc1nc2cc(-c3ccc(OCc4ccccc4)c(F)c3)c(Cl)cc2[nH]1` [Example 40, [5-(4-Benzyloxy-3-fluoro-phenyl)-6-chloro-1H-benzimidazol-2-ylsulfanyl]-acetic acid]: the Emax was more than 40%.
On the same count and under the same terms, under `O=C(O)CSc1nc2cc(C#CC3CCCC3)c(Cl)cc2[nH]1` [Example 35, (6-chloro-5-cyclo-pentylethynyl-1H-benzo-imidazol-2-yl-sulfanyl)-acetic acid] stands more than 40%; under `O=C(O)CSc1nc2cc(C#CCOc3ccccc3)c(Cl)cc2[nH]1` [Example 26, [6-chloro-5-(3-phenoxy-prop-1-ynyl)-1H-benzo-imidazol-2-yl-sulfanyl]-acetic acid], more than 40%.
For `CC(=O)Nc1ccc(C#Cc2cc3nc(SCC(=O)O)[nH]c3cc2Cl)cc1` [Example 76], the Emax was more than 40%.
Still for that read-out and setting: under `O=C(O)CSc1nc2cc(-c3ccc(N4CCOCC4)cc3)c(Cl)cc2[nH]1` [Example 61] stands more than 40%.

The same assay, now with this note: recombinant human AMPK complex 1 (α1β1γ1); read-out: EC50.
Broadly, the pEC50 is the EC50 on a negative log10 scale, so that one unit is a factor of ten. With `O=C(O)COc1nc2cc(C#Cc3ccccc3)c(Cl)cc2[nH]1` [Example 48, (6-Chloro-5-phenylethynyl-1H-benzoimidazol-2-yloxy)-acetic acid], the pEC50 was 6.89.
In the case of `O=C(O)CSc1nc2cc(-c3ccc(-c4ccccc4O)cc3)c(Cl)cc2[nH]1` [Example 6, 2-(6-chloro-5-(2′-hydroxybiphenyl-4-yl)-1H-benzo[d]imidazol-2-ylthio)acetic acid], the pEC50 is 7.89.
The same measure, in the same setting: under `O=C(O)CSc1nc2cc(C#Cc3ccc(CO)cc3)c(Cl)cc2[nH]1` [Example 18, [6-Chloro-5-(4-hydroxymethyl-phenylethynyl)-1H-benzoimidazol-2-ylsulfanyl]-acetic acid] stands 6.61.
Still for that read-out and setting: for `O=C(O)COc1nc2cc(C#Cc3ccc(CO)cc3)c(Cl)cc2[nH]1` [Example 47] the value was 7.01.
